Test results reported in US20130274100A1, “Synergistic Fungicidal Active Substance Combinations” (priority 2005, published 2013).

Key:
[1] = tested on: Erysiphe graminis f.sp. tritici; assay: Erysiphe test (wheat)/protective; format: in vivo; settings: protective spray, application rate 62.5 g/ha, evaluation 7 days after inoculation
Excerpt: The expected fungicidal action for a given combination of two active compounds can be calculated as follows, according to S. R. Colby (“Calculating Synergistic and Antagonistic Responses of Herbicide Combinations”, Weeds 1967, 15, 20-22): • X is the efficacy when employing active compound A at an application rate of m g/ha, • Y is the efficacy when employing active compound B at an application rate of n g/ha and • E is the efficacy when employing active compounds A and B at application rates of m and n g/ha, then Here, the efficacy is determined in %. 0% means an efficacy which corresponds to that of the control, whereas an efficacy of 100% means that no infection is observed. If the actual fungicidal action exceeds the calculated value, the action of the combination is superadditive, i.e. a synergistic effect is present. In this case, the actually observed efficacy must exceed the value calculated using the above formula for the expected efficacy (E). Erysiphe Test (Wheat)/Protective Solvent: 50 parts by weight of N,N-dimethylacetamide Emulsifier: 1 part by weight of alkylarylpolyglycol ether To produce a suitable preparation of active compound, 1 part by weight of active compound is mixed with the stated amounts of solvent and emulsifier or a commercial active compound formulation, and the concentrate is diluted with water to the desired concentration. To test for protective activity, young plants are sprayed with the preparation of active compound at the stated application rate. After the spray coating has dried on, the plants are dusted with spores of Erysiphe graminis f.sp. tritici. The plants are placed in a greenhouse at a temperature of about 20° C. and a relative atmospheric humidity of about 80% to promote the development of mildew pustules. Evaluation is carried out 7 days after the inoculation. 0% means an efficacy which corresponds to that of the control, whereas an efficacy of 100% means that no infection is observed.

Puccinia recondita = assay: Puccinia test (wheat)/protective; format: in vivo; settings: protective spray, evaluation 10 days after inoculation
Excerpt: The expected fungicidal action for a given combination of two active compounds can be calculated as follows, according to S. R. Colby (“Calculating Synergistic and Antagonistic Responses of Herbicide Combinations”, Weeds 1967, 15, 20-22): • X is the efficacy when employing active compound A at an application rate of m g/ha, • Y is the efficacy when employing active compound B at an application rate of n g/ha and • E is the efficacy when employing active compounds A and B at application rates of m and n g/ha, then Here, the efficacy is determined in %. 0% means an efficacy which corresponds to that of the control, whereas an efficacy of 100% means that no infection is observed. If the actual fungicidal action exceeds the calculated value, the action of the combination is superadditive, i.e. a synergistic effect is present. In this case, the actually observed efficacy must exceed the value calculated using the above formula for the expected efficacy (E). Puccinia Test (Wheat)/Protective Solvent: 50 parts by weight of N,N-dimethylacetamide Emulsifier: 1 part by weight of alkylaryl polyglycol ether To produce a suitable preparation of active compound, 1 part by weight of active compound is mixed with the stated amounts of solvent and emulsifier or a commercial active compound formulation, and the concentrate is diluted with water to the desired concentration. To test for protective activity, young plants are sprayed with the preparation of active compound at the stated application rate. After the spray coating has dried on, the plants are sprayed with a conidia suspension of Puccinia recondita. The plants remain in an incubation cabin at 20° C. and 100% relative atmospheric humidity for 48 hours. The plants are then placed in a greenhouse at a temperature of about 20° C. and a relative atmospheric humidity of 80% to promote the development of rust postules. Evaluation is carried out 10 days after the inoculation. 0% means inefficacy which corresponds to that of the control, whereas an efficacy of 100% means that no infection is observed.

CO/C=C(/C(=O)OC)c1ccccc1COc1cccc(C(F)(F)F)n1 [(2-9), Picoxystrobin]
Efficacy in % found [1]: 71% | Efficacy in % found (Puccinia recondita; application rate 250 g/ha): 94%

CC(C)CC(C)c1sccc1NC(=O)c1cn(C)nc1C(F)(F)F (stereo not shown) [(1-1), N-[2-(1,3-dimethylbutyl)-3-thienyl]-1-methyl-3-(trifluoromethyl)-1H-pyrazole-4-carboxamide]
Efficacy in % found [1]: 0% | Efficacy in % found (Puccinia recondita; application rate 125 g/ha): 33% | Efficacy in % found (Puccinia recondita; application rate 250 g/ha): 67%

CCCC1COC(Cn2cncn2)(c2ccc(Cl)cc2Cl)O1 (stereo not shown) [(3-3), Propiconazole]
Efficacy in % found [1]: 29% | Efficacy in % found (Puccinia recondita; application rate 125 g/ha): 56%

Cc1cc(C2CC2)nc(Nc2ccccc2)n1 [(9-1), Cyprodinil]
Efficacy in % found [1]: 0% | Efficacy in % found (Puccinia recondita; application rate 125 g/ha): 0%

CCCCC(O)(Cn1cncn1)c1ccc(Cl)cc1Cl (stereo not shown) [(3-7), Hexaconazole]
Efficacy in % found [1]: 29% | Efficacy in % found (Puccinia recondita; application rate 125 g/ha): 78%

CC(C1CC1)C(O)(Cn1cncn1)c1ccc(Cl)cc1 (stereo not shown) [(3-6), Cyproconazole]
Efficacy in % found [1]: 57% | Efficacy in % found (Puccinia recondita; application rate 125 g/ha): 94%
